In brackets after ≈: the same amount, converted by molar mass. Activity calls are given as the source filed them. The rule behind the calls is not given here.
Legend:
Candida parapsilosis = experiment: Antifungal activity against Candida parapsilosis ATCC 22019 assessed as reduction in fungal growth incubated for 72 hrs by broth microdilution method; assay type: functional; conditions: Lodderomyces parapsilosis
[1] = Antifungal activity against Cryptococcus gattii VGI SCZ20031 assessed as reduction in fungal growth incubated for 72 hrs by broth microdilution method; assay type: functional
HUVEC = experiment: Cytotoxicity against HUVEC cells assessed as reduction in cell viability at 0.25 to 64 ug/ml incubated for 2 hrs by CCK-8 assay; assay type: toxicity, cell-based; conditions: human, dose 0.25-64 µg/ml
Nakaseomyces glabratus [2] = experiment: Antifungal activity against Candida glabrata 337 assessed as reduction in fungal growth incubated for 48 hrs by broth microdilution method; assay type: functional
Cryptococcus neoformans [3] = experiment: Antifungal activity against Cryptococcus neoformans HN15 assessed as reduction in fungal growth incubated for 72 hrs by broth microdilution method; assay type: functional
Cryptococcus neoformans [4] = experiment: Antifungal activity against Cryptococcus neoformans 444 assessed as reduction in fungal growth incubated for 72 hrs by broth microdilution method; assay type: functional
[5] = Hemolytic activity in rabbit Red blood cell at 64 ug/ml relative to control; assay type: toxicity, cell-based, Oryctolagus cuniculus, Erythrocyte; conditions: red blood cells, at 64 µg/mL, read-out: Activity
[6] = Hemolytic activity in rabbit Red blood cell at 2 ug/ml relative to control; assay type: toxicity, cell-based, Oryctolagus cuniculus, Erythrocyte; conditions: red blood cells, at 2 µg/mL, read-out: Activity
Nakaseomyces glabratus [7] = experiment: Antifungal activity against Candida glabrata YC1-34 assessed as reduction in fungal growth incubated for 48 hrs by broth microdilution method; assay type: functional
[8] = Antifungal activity against Cryptococcus gattii VGI WM178 assessed as reduction in fungal growth incubated for 72 hrs by broth microdilution method; assay type: functional
[9] = Antifungal activity against Cryptococcus gattii VGI E566 assessed as reduction in fungal growth incubated for 72 hrs by broth microdilution method; assay type: functional
Cryptococcus neoformans [10] = experiment: Antifungal activity against Cryptococcus neoformans BJ3 assessed as reduction in fungal growth incubated for 72 hrs by broth microdilution method; assay type: functional
Caco-2 = experiment: Cytotoxicity against human Caco-2 cells assessed as reduction in cell viability at 0.25 to 64 ug/ml incubated for 2 hrs by CCK-8 assay; assay type: toxicity, cell-based; conditions: caco-2, 2 h, dose 0.25-64 µg/ml
[11] = Antifungal activity against Cryptococcus gattii VGI WM179 assessed as reduction in fungal growth incubated for 72 hrs by broth microdilution method; assay type: functional
Cryptococcus neoformans [12] = experiment: Antifungal activity against Cryptococcus neoformans HN1 assessed as reduction in fungal growth incubated for 72 hrs by broth microdilution method; assay type: functional
Nakaseomyces glabratus [13] = experiment: Antifungal activity against Candida glabrata Y10-15 assessed as reduction in fungal growth incubated for 48 hrs by broth microdilution method; assay type: functional
Nakaseomyces glabratus [14] = experiment: Antifungal activity against Candida glabrata 537 assessed as reduction in fungal growth incubated for 72 hrs by broth microdilution method; assay type: functional
Candida tropicalis = experiment: Antifungal activity against Candida tropicalis 2718 assessed as reduction in fungal growth incubated for 72 hrs by broth microdilution method; assay type: functional
Nakaseomyces glabratus [15] = experiment: Antifungal activity against Candida glabrata 203 assessed as reduction in fungal growth incubated for 48 hrs by broth microdilution method; assay type: functional
[Candida] auris = Antifungal activity against Candida auris D12 assessed as reduction in fungal growth incubated for 72 hrs by broth microdilution method; assay type: functional; conditions: Candidozyma auris
Candida albicans = experiment: Antifungal activity against Candida albicans SC5314 assessed as reduction in fungal growth incubated for 72 hrs by broth microdilution method; assay type: functional
[16] = Antifungal activity against Cryptococcus gattii VGI SCZ20024 assessed as reduction in fungal growth incubated for 72 hrs by broth microdilution method; assay type: functional
[17] = Toxicity against ICR mouse assessed as enlargement of cytoplasm in hepatocytes at 50 mg/kg, ip administered at 24 hrs interval for 7 days by hematoxylin and eosin staining based analysis; assay type: organism-based; conditions: in vivo
Cryptococcus neoformans [18] = experiment: Antifungal activity against Cryptococcus neoformans H99 assessed as reduction in fungal growth incubated for 72 hrs by broth microdilution method; assay type: functional
Cryptococcus neoformans [19] = experiment: Antifungal activity against Cryptococcus neoformans 20 assessed as reduction in fungal growth incubated for 72 hrs by broth microdilution method; assay type: functional
Cryptococcus neoformans [20] = experiment: Antifungal activity against Cryptococcus neoformans H99 infected in C57BL/6J mouse assessed as reduction in fungal burden in brain at 2 mg/kg, ip; assay type: functional, organism-based
Pichia kudriavzevii = experiment: Antifungal activity against Pichia kudriavzevii 4946 assessed as reduction in fungal growth incubated for 72 hrs by broth microdilution method; assay type: functional
Cryptococcus neoformans [21] = experiment: Antifungal activity against Cryptococcus neoformans H99 infected in C57BL/6J mouse assessed as reduction in fungal burden in lung at 10 mg/kg, ip; assay type: functional, organism-based
[22] = Metabolic stability in mouse liver microsomes assessed as elimination rate constant; assay type: ADME, Microsome
[23] = Metabolic stability in mouse liver microsomes assessed as half life; assay type: ADME, Microsome
[24] = Nephrotoxicity in ICR mouse at 50 mg/kg, ip administered at 24 hrs interval for 7 days by hematoxylin and eosin staining based analysis; assay type: toxicity, organism-based; conditions: in vivo, 168 h, time 7 day
Erythrocyte = experiment: Hemolytic activity in rabbit Red blood cell at 64 ug/ml; assay type: toxicity, cell-based, Oryctolagus cuniculus; conditions: dose 64 µg/ml
Cryptococcus neoformans [25] = experiment: Antifungal activity against Cryptococcus neoformans assessed as increase in MIC incubated for 72 hrs in presence of FeCl3 by broth microdilution method; assay type: functional, organism-based
[26] = Toxicity against ICR mouse assessed as enlargement of nucleus in hepatocytes at 50 mg/kg, ip administered at 24 hrs interval for 7 days by hematoxylin and eosin staining based analysis; assay type: organism-based; conditions: in vivo, 168 h, time 7 day
Cryptococcus neoformans [27] = experiment: Antifungal activity against Cryptococcus neoformans H99 infected in C57BL/6J mouse assessed as reduction in fungal burden in brain at 10 mg/kg, ip; assay type: functional, organism-based
[28] = Toxicity against ICR mouse assessed as hypertrophy at 50 mg/kg, ip administered at 24 hrs interval for 7 days by hematoxylin and eosin staining based analysis; assay type: organism-based; conditions: in vivo, 168 h, time 7 day
[29] = Toxicity against ICR mouse assessed as reduction in lipid droplet at 20 mg/kg, ip administered at 24 hrs interval for 7 days by hematoxylin and eosin staining based analysis; assay type: organism-based; conditions: in vivo, 168 h, time 7 day
[30] = Toxicity against ICR mouse assessed as reduction in lipid droplet at 50 mg/kg, ip administered at 24 hrs interval for 7 days by hematoxylin and eosin staining based analysis; assay type: organism-based; conditions: in vivo, 168 h, time 7 day
Cryptococcus neoformans [31] = experiment: Antifungal activity against Cryptococcus neoformans H99 infected in C57BL/6J mouse assessed as reduction in fungal burden in lung at 2 mg/kg, ip; assay type: functional, organism-based
[32] = Metabolic stability in mouse liver microsomes assessed as intrinsic clearance; assay type: ADME, Microsome; conditions: read-out: CLH
[33] = Toxicity against ICR mouse assessed as glomerular enlargement at 50 mg/kg, ip administered at 24 hrs interval for 7 days by hematoxylin and eosin staining based analysis; assay type: organism-based; conditions: in vivo, 168 h, time 7 day
[34] = Toxicity against ICR mouse assessed as inflammatory cell infiltration at 50 mg/kg, ip administered at 24 hrs interval for 7 days by hematoxylin and eosin staining based analysis; assay type: organism-based; conditions: in vivo, 168 h, time 7 day
[35] = Toxicity against ICR mouse assessed as increase in monocytes at 50 mg/kg, ip administered at 24 hrs interval for 7 days by hematoxylin and eosin staining based analysis; assay type: organism-based; conditions: in vivo, 168 h, time 7 day

Row | MIC (Candida parapsilosis) | MIC [1] | MIC (Nakaseomyces glabratus [2]) | MIC (Cryptococcus neoformans [3]) | MIC (Cryptococcus neoformans [4]) | MIC (Nakaseomyces glabratus [7]) | MIC [8] | MIC [9] | MIC (Cryptococcus neoformans [10]) | MIC [11] | MIC (Cryptococcus neoformans [12]) | MIC (Nakaseomyces glabratus [13]) | MIC (Nakaseomyces glabratus [14]) | MIC (Candida tropicalis) | MIC (Nakaseomyces glabratus [15]) | MIC ([Candida] auris) | MIC (Candida albicans) | MIC [16] | SMILES | Activity (HUVEC) | Activity (Caco-2) | further results
1 | 64 µg/mL (≈ 130 µM) | < 0.125 µg/mL | < 0.125 µg/mL | < 0.125 µg/mL | 1 µg/mL (≈ 2.04 µM) | < 0.125 µg/mL | 0.25 µg/mL (≈ 0.51 µM) | 0.5 µg/mL (≈ 1.02 µM) | 0.5 µg/mL (≈ 1.02 µM) | 0.5 µg/mL (≈ 1.02 µM) | < 0.125 µg/mL | < 0.125 µg/mL | < 0.125 µg/mL | 2 µg/mL (≈ 4.08 µM) | < 0.125 µg/mL | > 64 µg/mL | 4 µg/mL (≈ 8.15 µM) | 0.25 µg/mL (≈ 0.51 µM) | O=C(NC1CCS(=O)(=O)C1)c1ccc(-n2nc(-c3ccccc3O)nc2-c2ccccc2O)cc1 (stereo unspecified) | Non-Toxic | Non-Toxic | Activity [17]: Toxic; MIC (Cryptococcus neoformans [18]): 0.25 µg/mL (≈ 0.51 µM); MIC (Cryptococcus neoformans [19]): < 0.125 µg/mL; Activity (Cryptococcus neoformans [20]): inactive; MIC (Pichia kudriavzevii): 0.25 µg/mL (≈ 0.51 µM); Activity (Cryptococcus neoformans [21]): Active; k el [22]: 8.33e-05 s⁻¹; half-life [23]: 2.13 h; Activity [24]: Toxic; Activity (Erythrocyte): Non-Toxic; Activity (Cryptococcus neoformans [25]): inactive; Activity [26]: Toxic; Activity (Cryptococcus neoformans [27]): Active; Activity [28]: Toxic; Activity [29]: Toxic; Activity [30]: Toxic; Activity (Cryptococcus neoformans [31]): inactive; microsomal CLint [32]: 10.9 µL/min/mg
2 | 32 µg/mL (≈ 85.7 µM) | 2 µg/mL (≈ 5.36 µM) | 0.5 µg/mL (≈ 1.34 µM) | 2 µg/mL (≈ 5.36 µM) | 8 µg/mL (≈ 21.4 µM) | 0.25 µg/mL (≈ 0.67 µM) | 8 µg/mL (≈ 21.4 µM) | 8 µg/mL (≈ 21.4 µM) | 8 µg/mL (≈ 21.4 µM) | 8 µg/mL (≈ 21.4 µM) | 4 µg/mL (≈ 10.7 µM) | 0.5 µg/mL (≈ 1.34 µM) | 0.5 µg/mL (≈ 1.34 µM) | 8 µg/mL (≈ 21.4 µM) | 2 µg/mL (≈ 5.36 µM) | > 64 µg/mL | > 64 µg/mL | 2 µg/mL (≈ 5.36 µM) | O=C(O)c1ccc(-n2nc(-c3ccccc3O)nc2-c2ccccc2O)cc1 [DEFERASIROX] | – | – | Activity [17]: Toxic; MIC (Cryptococcus neoformans [18]): 2 µg/mL (≈ 5.36 µM); MIC (Cryptococcus neoformans [19]): 2 µg/mL (≈ 5.36 µM); MIC (Pichia kudriavzevii): 2 µg/mL (≈ 5.36 µM); k el [22]: 5e-05 s⁻¹; Activity [33]: Toxic; half-life [23]: 3.9 h; Activity [34]: Toxic; Activity [26]: Toxic; Activity [35]: Toxic; Activity [28]: Toxic; Activity [30]: Toxic; microsomal CLint [32]: 5.94 µL/min/mg

Row | SMILES | MIC (Candida parapsilosis) | MIC [1] | MIC (Nakaseomyces glabratus [2]) | MIC (Cryptococcus neoformans [3]) | MIC (Cryptococcus neoformans [4]) | MIC (Nakaseomyces glabratus [7]) | MIC [8] | MIC [9] | MIC (Cryptococcus neoformans [10]) | MIC [11] | MIC (Cryptococcus neoformans [12]) | MIC (Nakaseomyces glabratus [13]) | MIC (Nakaseomyces glabratus [14]) | MIC (Candida tropicalis) | MIC (Nakaseomyces glabratus [15]) | MIC ([Candida] auris) | MIC (Candida albicans) | MIC [16] | Activity (HUVEC) | Activity (Caco-2) | further results
3 | C[C@@H]1[C@H](O)[C@@H](C)/C=C/C=C/C=C/C=C/C=C/C=C/C=C/[C@H](O[C@@H]2O[C@H](C)[C@@H](O)[C@H](N)[C@@H]2O)C[C@@H]2O[C@](O)(C[C@@H](O)C[C@@H](O)[C@H](O)CC[C@@H](O)C[C@@H](O)CC(=O)O[C@H]1C)C[C@H](O)[C@H]2C(=O)O [AMPHOTERICIN B] | 0.5 µg/mL (≈ 0.541 µM) | 1 µg/mL (≈ 1.08 µM) | 0.5 µg/mL (≈ 0.541 µM) | 8 µg/mL (≈ 8.66 µM) | 2 µg/mL (≈ 2.16 µM) | 1 µg/mL (≈ 1.08 µM) | 1 µg/mL (≈ 1.08 µM) | 4 µg/mL (≈ 4.33 µM) | 2 µg/mL (≈ 2.16 µM) | 1 µg/mL (≈ 1.08 µM) | 1 µg/mL (≈ 1.08 µM) | 2 µg/mL (≈ 2.16 µM) | < 0.125 µg/mL | 1 µg/mL (≈ 1.08 µM) | 16 µg/mL (≈ 17.3 µM) | 8 µg/mL (≈ 8.66 µM) | 1 µg/mL (≈ 1.08 µM) | 1 µg/mL (≈ 1.08 µM) | Non-Toxic | Non-Toxic | hemolysis at 64 ug/ml [5]: 100%; hemolysis at 2 ug/ml [6]: > 10%
